Assay results from publication PMC12467740, “Synthesis, Characterization, and Screening Anticancer—Antibiofilm Activities of Theophylline Derivatives Containing CF3/OCF3 Moiety” (Biology, 2025).
Where “and” joins values, the source holds several entries; their conditions need not be identical. Identical values can stand only once.

Key:
[1] = test system: CYP450; conditions: cited from earlier work
[2] = test system: BEAS-2B cells; assay: MTT cell viability assay, BEAS-2B; format: cell-based; conditions: Homo sapiens, 48 h, mean ± SD (n = 3)
Experimental: (§1) The anticancer potential of substituted theophylline derivatives was investigated using human lung carcinoma (A549, CCL-185) and cervical cancer (HeLa, CCL-2) cell lines obtained from the American Type Culture Collection (ATCC). To evaluate the selectivity of the tested compounds, cytotoxicity was also assessed in a healthy human bronchial epithelial cell line (BEAS-2B, ATCC CRL-9609). Cells were maintained in DMEM (Euroclone S.p.A., Pero, Italy supplemented with 10% fetal bovine serum (Sigma-Aldrich, St. Louis, MO, USA) and 1% penicillin–streptomycin (1%, Capricorn Scientific GmbH, Ebsdorfergrund, Germany at 37 °C in a humidified atmosphere containing 5% CO2. The theophylline-derived compounds (1a–1e) were dissolved in DMSO to prepare 100 mM stock solutions, which were then diluted with DMEM to obtain final working concentrations ranging from 3.125 µM to 100 µM. To evaluate cell viability, the MTT colorimetric assay was employed. Upon reaching logarithmic growth, A549, HeLa and BEAS-2B cells were seeded at a density of 7000 cells per well in 96-well microplates and allowed to attach for 24 h. Following this, cells were treated with different concentrations of the compounds and incubated for 48 h. After treatment, 100 µL of fresh medium and 20 µL of MTT reagent (5 mg/mL, Bio Basic Inc., Markham, ON, Canada) were added to each well, and cells were incubated for an additional 3 h. The resulting formazan crystals were solubilized with DMSO. Cell viability was calculated as the percentage of absorbance relative to untreated controls, and IC50 values were determined by nonlinear regression analysis using GraphPad Prism software, version 8.0 (GraphPad Software, San Diego, CA, USA. All experiments were performed in at least three independent replicates, and results are reported as mean ± SD. The percentage of inhibition was calculated based on the reduction in metabolic activity of the cells following compound treatment, as assessed by the MTT assay. The absorbance was measured at 570 nm using a microplate reader. The inhibition (%) was calculated using the following formula:Inhibition %=[1 − (Asample − Ablank)/[…]] × 100 To assess the tumor selectivity of the tested theophylline derivatives, the selectivity index (SI) was calculated for each compound. SI is defined as the ratio of the IC50 value in healthy (non-tumorigenic) cells to the IC50 value in cancer cells. In this study, IC50 values were determined for BEAS-2B (non-tumorigenic human bronchial epithelial cells) as a healthy control and for A549 (lung adenocarcinoma) and HeLa (cervical carcinoma) as tumor models. The SI was calculated according to the following equation:SI = [IC50, healthy/IC50, cancer]

[3] = test system: Escherichia coli; assay: Well plate biofilm formation assay (crystal violet); format: cell-based; conditions: over the concentration range given per compound (Table 4)
Experimental: (§2) The well plate assay was utilized to test the effectiveness of compounds in inhibiting biofilms made by microorganisms. An amount of 100 μL of Brucella broth (Remel, Lenexa, KS, USA) containing 1% and 20% glucose (Biolife, Milan, Italy), were dispensed into the test wells. In the next step, 100 μL of compounds ranging from 0.244 to 1000 μg/mL were poured into the wells. […] Then, 0.5 McFarland standard in physiological saline from each microorganism strain were prepared and 20 μL of the prepared suspension was added to the wells. A column of the microplate containing 100 μL Brucella broth served as a negative control and another column of the microplate containing 100 μL Brucella with 20 μL of each microorganism added served as a growth control. As positive controls, ciprofloxacin was applied against bacterial strains at a concentration range of 0.03125-64 μg/mL, and fluconazole was used against Candida albicans at a concentration range of 0.3125-640 μg/mL. Plates were left to incubate at 36.5 °C for a day. The plates were emptied and then washed three times with 300 μL of deionized water. The wells were left to dry for half an hour. The next step was staining with 0.1% (w/v) violet dye ([…]), cleaning three times with deionized water, and drying at room temperature. The crystal violet adhering to the wall of the wells was dissolved with 95% ethanol, and the optical density was measured at 570 nm. The test was run two times, and the mean value was calculated. Biofilm preventing (%) = {(ODb - ODc)/ODb} × 100.

[4] = test system: Staphylococcus aureus; assay: as above; format: cell-based; conditions: over the concentration range given per compound (Table 4); 1c and 1e at 1000 µg/mL
Experimental: as §2

[5] = test system: Pseudomonas aeruginosa; assay: as above; format: cell-based; conditions: over the concentration range given per compound (Table 4)
Experimental: as §2

[6] = test system: Candida albicans; assay: as above; format: cell-based; conditions: over the concentration range given per compound (Table 4)
Experimental: as §2

[7] = test system: Enterococcus faecalis; assay: as above; format: cell-based; conditions: over the concentration range given per compound (Table 4)
Experimental: as §2

[8] = test system: HeLa cells; assay: MTT cell viability assay, HeLa; format: cell-based, human; conditions: for IC50: 48 h, MTT, mean ± SD (n = 3); for SI (HeLa): ratio of IC50 in BEAS-2B cells to IC50 in HeLa cells
Experimental: as §1

[9] = test system: A549 cells; assay: MTT cell viability assay, A549; format: cell-based, human; conditions: for IC50: MTT, 48 h, mean ± SD (n = 3); for SI (A549): ratio of IC50 in BEAS-2B cells to IC50 in A549 cells
Experimental: as §1

[10] = test system: HeLa cells; assay: ELISA of apoptosis-related proteins, HeLa; format: cell-based, human; conditions: IC50, 48 h, vs untreated controls
Experimental: (§3) To validate the gene expression changes observed in the RT-qPCR analysis at the protein level, ELISA assays were conducted to measure the protein levels in A549 and HeLa cells. […] Following incubation, cells were washed with cold PBS and lysed using RIPA buffer supplemented with protease and phosphatase inhibitors. […] was removed by centrifugation at 14,000× g for 10 min. Total protein concentration in the cell lysates was determined spectrophotometrically using the BCA Protein Assay Kit (Thermo Scientific, Waltham, MA, USA). Protein concentrations were standardized to equal amounts across all samples prior to ELISA analysis. Commercially available Human ELISA Kit (Abcam, Cambridge, UK) were used to quantify Caspase-3, BAX, BCL-2, and Cytochrome C levels, and all assays were performed according to the manufacturers’ protocols. Absorbance was measured at 450 nm using a microplate reader. All experiments were conducted in triplicate. The results were normalized to the control group (control = 1) and expressed as fold change relative to untreated controls.

[11] = test system: A549 cells; assay: RT-qPCR of apoptosis-related genes, A549; format: cell-based, human; conditions: A549, IC50 concentration, 48 h, vs untreated control
Experimental: (§4) Total RNA was isolated from cells using the RNeasy Mini Kit (Qiagen GmbH, Hilden, Germany) according to the manufacturer’s instructions. RNA quality and quantity were evaluated spectrophotometrically. Subsequently, cDNA synthesis was performed using the iScript™ cDNA Synthesis Kit (Bio-Rad Laboratories, Hercules, CA, USA).
(§5) RT-qPCR reactions (LightCycler® 480 Instrument II (Roche Diagnostics, Mannheim, Germany) were carried out using SYBR™ Green PCR Master Mix (Applied Biosystems, Foster City, CA, USA) and gene-specific primers targeting pro-apoptotic genes (CASP3, CASP8, CASP9, BAX, BAK1, PUMA, NOXA, CYCS), anti-apoptotic genes (BCL2, BCL-XL, MCL1), cell cycle/stress-related genes (TP53, CDKN1A/p21, GADD45A, ATF4), and the reference gene GAPDH. The primer sequences used for each gene are presented in the Supplementary File (Figure S66).
(§6) All reactions were conducted in triplicate, and negative controls (no-template controls, NTC) were included in each run. Relative gene expression levels were analyzed using the 2^−ΔΔCt method, and results were normalized to control samples (control expression set as ‘1’) and expressed as fold change relative to controls.

[12] = test system: A549 cells; assay: ELISA of apoptosis-related proteins, A549; format: cell-based, human; conditions: A549, IC50, 48 h, vs untreated controls
Experimental: as §3

[13] = test system: HeLa cells; assay: RT-qPCR of apoptosis-related genes, HeLa; format: cell-based, human; conditions: IC50 concentration, 48 h, vs untreated control
Experimental: as §4, §5, §6

SMILES | IC50 [2] | Antibiofilm activity Escherichia coli [3] | Antibiofilm activity Staphylococcus aureus [4] | Antibiofilm activity Pseudomonas aeruginosa [5] | Antibiofilm activity Candida albicans [6] | Antibiofilm activity Enterococcus faecalis [7] | IC50 ([8]; Homo sapiens, HeLa) | SI (HeLa) [8] | IC50 ([9]; Homo sapiens, A549, 48 h) | IC50 [9] | SI (A549) [9] | also measured
C[C@]12CC[C@H](O)CC1=CC[C@@H]1[C@@H]2CC[C@]2(C)C(c3cccnc3)=CC[C@@H]12 [Abiraterone] | – | – | – | – | – | – | – | – | – | – | – | binding properties (docking) [1]: -10.3 kcal/mol
Cn1c(=O)c2c(ncn2Cc2cccc(C(F)(F)F)c2)n(C)c1=O [Compound 1b, 1,3-Dimethyl-7-(3-(trifluoromethyl)benzyl)-3,7-dihydro-1H-purine-2,6-dione] | 120 ± 3 µM | did not show antibiofilm activity and – | did not show antibiofilm activity and – | did not show antibiofilm activity and – | 0.8–23.9% | 5.7–23.1% | 10.8 ± 0.8 µM | 8.16 ± 0.16 | 12.4 ± 0.7 µM | 13.6 ± 0.9 µM | 8.82 ± 0.20 | IC50 [8]: 14.7 ± 0.7 µM
Cn1c(=O)c2c(ncn2Cc2ccccc2C(F)(F)F)n(C)c1=O [Compound 1a, 1,3-Dimethyl-7-(2-(trifluoromethyl)benzyl)-3,7-dihydro-1H-purine-2,6-dione] | 100 ± 2 µM | did not show antibiofilm activity and – | did not show antibiofilm activity and – | did not show antibiofilm activity and – | 0.5–13.7% | 1.08–14.7% | 11.5 ± 1.2 µM | 8.70 ± 0.20 | 15.7 ± 0.6 µM | 12.4 ± 0.7 µM | 8.06 ± 0.03 and 8.06 ± 0.10 | Protein level of BCL-2 [10]: marked decrease; Protein levels of Caspase-3, BAX and Cytochrome C [10]: significant increases; Expression of anti-apoptotic genes (BCL2, BCL-XL, MCL1) [11]: notable downregulation; Expression of pro-apoptotic genes (CASP3, CASP8, CASP9, BAX, BAK1, PUMA, NOXA, CYCS) and cell cycle/stress genes (TP53, CDKN1A, FAS, GADD45A, ATF4) [11]: significant upregulation; Protein level of BCL-2 [12]: marked decrease; Protein levels of Caspase-3, BAX and Cytochrome C [12]: significant increases; Expression of anti-apoptotic genes (BCL2, BCL-XL, MCL1) [13]: notable downregulation; Expression of pro-apoptotic genes (CASP3, CASP8, CASP9, BAX, BAK1, PUMA, NOXA, CYCS) and cell cycle/stress genes (TP53, CDKN1A, FAS, GADD45A, ATF4) [13]: significant upregulation
